Experimental data reported in patent US20240033234A1, “THERAPEUTIC COMPOUNDS, FORMULATIONS, AND USE THEREOF” (Tvardi Therapeutics, Inc., priority 2022, published 2024).
“And” between values parts separate entries of the source, which are not always exact repeats. Identical values can stand only once.

Test: Accelerated and long term stability study of TTI-101 (Batch A, Batch B): HPLC assay, purity, impurities and water content after storage at 5° C., 25° C./60% RH, 30° C./65% RH or 40° C./75% RH
Assay type: physicochemical
Description: Exemplary HPLC conditions: diluent was 0.1% trifluoroacetic acid (TFA) in acetonitrile, Mobile Phase A was 0.05% TFA in water, and Mobile Phase B was 0.05% TFA in acetonitrile, column (Agilent, Eclipse XDB-C18, 3.0×100 mm, particle size 1.8 μm), flow (0.425 mL/min), and detector (280 nm diode array).
Batch A was prepared analogously using Method 3 as described in Example 1. Batch B was prepared according to Method 5 as described in Example 1.
Samples of TTI-101 were stored at 5° C., 25° C./60% RH, 30° C./65% RH, or 40° C./75% RH. TTI-101 was stored in an LDPE bag enclosed with a Nylon cable tie and then transferred to another LDPE bag and enclosed with a Nylon cable tie. The enclosure was put into an HDPE bottle and closed with a polyethylene-lined polypropylene cap. The samples were stored under the above-identified conditions.
The samples were analyzed using HPLC with the exemplary conditions identified above. Relative retention time (RRT) for Compound 5 was about 0.83, Compound 4 was about 1.05-1.06, Compound 6 was about 1.15-1.17, and compound of formula (IV) was about 0.99.
• NA not applicable • NQ ≥0.02% and <0.05% • Avg average • Cmpd compound • — no peak • M month • RRT relative retention time

[1] = Storage 40° C./75% RH, 1 M, Prep P1-P2
[2] = Storage 40° C./75% RH, 3 M, Avg
[3] = Storage 40° C./75% RH, 3 M, Prep P1-P2
[4] = Storage 40° C./75% RH, 3 M, Prep P1-P2, listed as Batch B
[5] = Storage 40° C./75% RH, 6 M, Avg
[6] = Storage 40° C./75% RH, 6 M, Prep P1-P2
[7] = Storage 40° C./75% RH, 6 M, Prep P1-P2, listed as Batch B

SMILES: COc1ccc(S(=O)(=O)Nc2cc(-c3c(O)ccc4ccccc34)c(O)c3ccccc23)cc1 [TTI-101]
- Impurity RRT 0.99 [1]: 0.14 area %
- Impurity RRT 1.02 [1]: 0.06 area %
- Impurity RRT 1.05 [1]: NQ (≥0.02% and <0.05%)
- Impurity RRT 1.06 (Cmpd 4) [1]: NQ (≥0.02% and <0.05%)
- Impurity RRT 1.17 (Cmp 6) [1]: 0.38 area %
- Impurity RRT 1.39 [1]: 0.05 area %
- Purity [1]: 99.3%
- Water Content [1]: 0.1%
- Assay (Storage 40° C./75% RH, 1 M, Prep P1-P2, listed as Batch B): 99.1% and 99.4%
- Assay [2]: 98.7%
- Impurities Total [2]: 1.0 area %
- Impurity RRT 0.38 [2]: NQ (≥0.02% and <0.05%)
- Impurity RRT 0.80 [2]: NQ (≥0.02% and <0.05%)
- Impurity RRT 0.84 [2]: NQ (≥0.02% and <0.05%)
- Impurity RRT 0.87 [2]: NQ (≥0.02% and <0.05%)
- Impurity RRT 0.99 [2]: 0.24 area %
- Impurity RRT 1.02 [2]: 0.19 area %
- Impurity RRT 1.06 (Cmpd 4) [2]: NQ (≥0.02% and <0.05%)
- Impurity RRT 1.17 (Cmp 6) [2]: 0.37 area %
- Impurity RRT 1.39 [2]: 0.16 area %
- Purity [2]: 98.9%
- Water Content [2]: 0.04%
- Impurity RRT 0.38 [3]: NQ (≥0.02% and <0.05%)
- Impurity RRT 0.80 [3]: NQ (≥0.02% and <0.05%)
- Impurity RRT 0.84 [3]: NQ (≥0.02% and <0.05%)
- Impurity RRT 0.87 [3]: NQ (≥0.02% and <0.05%)
- Impurity RRT 0.99 [3]: 0.24 area %
- Impurity RRT 1.02 [3]: 0.19 area %
- Impurity RRT 1.39 [3]: 0.16 area %
- Purity [3]: 98.9%
- Assay [4]: 98.5% and 99.0%
- Impurities Total [4]: 1.0 area % and 0.9 area %
- Impurity RRT 1.17 (Cmp 6) [4]: 0.39 area % and 0.35 area %
- Water Content [4]: <0.04% and 0.04%
- Assay [5]: 98.4%
- Impurities Total [5]: 1.0 area %
- Impurity RRT 0.39 [5]: NQ (≥0.02% and <0.05%)
- Impurity RRT 0.80 [5]: NQ (≥0.02% and <0.05%)
- Impurity RRT 0.84 [5]: NQ (≥0.02% and <0.05%)
- Impurity RRT 0.87 [5]: NQ (≥0.02% and <0.05%)
- Impurity RRT 0.99 [5]: NQ (≥0.02% and <0.05%)
- Impurity RRT 1.02 [5]: 0.34 area %
- Impurity RRT 1.06 (Cmpd 4) [5]: NQ (≥0.02% and <0.05%)
- Impurity RRT 1.17 (Cmp 6) [5]: 0.30 area %
- Impurity RRT 1.27 [5]: NQ (≥0.02% and <0.05%)
- Impurity RRT 1.39 [5]: 0.34 area %
- Purity [5]: 98.9%
- Water Content [5]: <0.04%
- Impurities Total [6]: 1.0 area %
- Impurity RRT 0.39 [6]: NQ (≥0.02% and <0.05%)
- Impurity RRT 0.80 [6]: NQ (≥0.02% and <0.05%)
- Impurity RRT 0.84 [6]: NQ (≥0.02% and <0.05%)
- Impurity RRT 0.87 [6]: NQ (≥0.02% and <0.05%)
- Impurity RRT 0.99 [6]: NQ (≥0.02% and <0.05%)
- Impurity RRT 1.02 [6]: 0.34 area %
- Impurity RRT 1.06 (Cmpd 4) [6]: NQ (≥0.02% and <0.05%)
- Impurity RRT 1.39 [6]: 0.34 area %
- Water Content [6]: <0.04%
- Assay [7]: 98.6% and 98.2%
- Impurity RRT 1.17 (Cmp 6) [7]: 0.31 area % and 0.29 area %
- Purity [7]: 98.8% and 98.9%
- stability (over 24 months): excellent stability
